Results reported in patent US20180078561A1 (LAM Therapeutics, Inc., priority 2015, published 2018).
“Also recorded” adds a separate entry of the source. Where two headings read alike, the source gives them in different places.

Experiments:
cancer cell line = experiment: vacuolization of cells; format: cell-based; details: for vacuolation in cells: at concentrations comparable to apilimod
Source text: PIKfyve is associated with the cytosolic leaflet of early endosomes and its activity is required for endomembrane homeostasis, endolysosomal function and proper retrograde transport from the endosome to the trans-Golgi network. Introduction of a kinase dead mutant into cells induces a swollen vacuole phenotype that can be rescued by the injection of PI(3,5)P2. Inhibition of PIKfyve by pharmacological methods as well as RNAi also produces swollen vacuoles and disruption of endomembrane dynamics.
Introduction of a kinase dead mutant into cells induces a swollen vacuole phenotype that can be rescued by the injection of PI(3,5)P2. Inhibition of PIKfyve by pharmacological methods as well as RNAi also produces swollen vacuoles and disruption of endomembrane dynamics.

PIKfyve = biological target: T1, PIKfyve (Homo sapiens, UniProt Q9Y2I7); experiment: dissociation constant (Kd) study; format: binding; details: 0.05-3000 nM, duplicate
T1 construct: purchased DiscoveRx, Fremont, Calif
T1 sequence (Q9Y2I7 whole entry): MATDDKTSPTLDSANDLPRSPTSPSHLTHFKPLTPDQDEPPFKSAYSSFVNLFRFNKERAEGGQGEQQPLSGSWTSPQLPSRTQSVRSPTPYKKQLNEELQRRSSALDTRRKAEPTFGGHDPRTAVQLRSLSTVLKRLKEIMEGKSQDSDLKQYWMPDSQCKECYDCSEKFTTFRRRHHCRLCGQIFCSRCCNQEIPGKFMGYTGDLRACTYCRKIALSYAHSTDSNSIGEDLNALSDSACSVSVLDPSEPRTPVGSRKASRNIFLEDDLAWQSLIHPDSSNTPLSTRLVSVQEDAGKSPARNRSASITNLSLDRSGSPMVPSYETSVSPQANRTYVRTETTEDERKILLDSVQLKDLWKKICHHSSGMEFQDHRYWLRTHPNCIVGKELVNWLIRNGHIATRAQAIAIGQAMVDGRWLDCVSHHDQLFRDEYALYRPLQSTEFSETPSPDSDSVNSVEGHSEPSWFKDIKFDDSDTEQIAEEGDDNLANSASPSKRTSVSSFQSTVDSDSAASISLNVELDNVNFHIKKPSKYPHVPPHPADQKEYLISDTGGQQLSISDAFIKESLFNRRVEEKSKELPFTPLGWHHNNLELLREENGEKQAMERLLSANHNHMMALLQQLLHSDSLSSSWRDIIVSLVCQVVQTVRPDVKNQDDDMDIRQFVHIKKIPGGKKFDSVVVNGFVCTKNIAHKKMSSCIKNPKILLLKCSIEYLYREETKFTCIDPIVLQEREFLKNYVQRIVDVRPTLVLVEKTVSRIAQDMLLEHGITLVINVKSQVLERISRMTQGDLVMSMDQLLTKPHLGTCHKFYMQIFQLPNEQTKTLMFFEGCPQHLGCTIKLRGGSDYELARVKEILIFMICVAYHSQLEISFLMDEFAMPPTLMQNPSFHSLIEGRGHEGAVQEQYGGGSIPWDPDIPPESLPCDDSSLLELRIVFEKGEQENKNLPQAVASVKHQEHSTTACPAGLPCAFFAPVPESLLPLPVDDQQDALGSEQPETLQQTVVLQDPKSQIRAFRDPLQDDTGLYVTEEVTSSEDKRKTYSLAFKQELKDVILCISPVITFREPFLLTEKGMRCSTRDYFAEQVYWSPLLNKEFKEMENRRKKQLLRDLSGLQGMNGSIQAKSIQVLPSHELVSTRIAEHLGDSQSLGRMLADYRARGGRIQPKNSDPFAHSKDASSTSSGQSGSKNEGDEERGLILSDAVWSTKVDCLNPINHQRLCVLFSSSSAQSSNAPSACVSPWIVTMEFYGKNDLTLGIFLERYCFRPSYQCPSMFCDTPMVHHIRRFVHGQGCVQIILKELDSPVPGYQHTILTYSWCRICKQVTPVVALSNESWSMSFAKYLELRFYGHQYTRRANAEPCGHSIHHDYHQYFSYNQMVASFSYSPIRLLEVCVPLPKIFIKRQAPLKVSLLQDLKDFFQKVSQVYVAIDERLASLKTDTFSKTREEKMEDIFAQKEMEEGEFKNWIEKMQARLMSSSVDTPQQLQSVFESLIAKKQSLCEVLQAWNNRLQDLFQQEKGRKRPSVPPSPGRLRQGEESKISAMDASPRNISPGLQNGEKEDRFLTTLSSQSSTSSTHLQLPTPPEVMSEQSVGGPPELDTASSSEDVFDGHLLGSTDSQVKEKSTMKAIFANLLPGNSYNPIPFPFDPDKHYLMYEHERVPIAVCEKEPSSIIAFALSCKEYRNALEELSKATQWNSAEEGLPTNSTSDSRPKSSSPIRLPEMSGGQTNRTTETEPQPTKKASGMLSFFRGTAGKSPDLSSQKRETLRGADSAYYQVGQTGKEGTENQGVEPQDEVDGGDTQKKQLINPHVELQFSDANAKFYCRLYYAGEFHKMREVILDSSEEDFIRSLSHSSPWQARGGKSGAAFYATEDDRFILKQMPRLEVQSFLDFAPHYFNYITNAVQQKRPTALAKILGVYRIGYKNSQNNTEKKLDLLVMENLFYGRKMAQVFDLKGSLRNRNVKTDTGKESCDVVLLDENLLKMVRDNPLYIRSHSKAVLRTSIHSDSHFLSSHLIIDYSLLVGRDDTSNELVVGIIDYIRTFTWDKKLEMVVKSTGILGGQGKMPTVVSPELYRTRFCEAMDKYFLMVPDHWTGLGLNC
Protocol: A dissociation constant (Kd) study was performed using the 3 compounds at increasing concentrations (0.05-3000 nM) against PIKfyve.

[1] = human plasma profile of apilimod and metabolites; format: in vivo; details: oral 105 mg doses of apilimod free base, given 10 hr apart
WSU-DLCL2 cells = experiment: anti-proliferative activity normalized to apilimod (plasma concentration factors); format: cell-based, Human; details: data from WSU-DLCL2 cells
plasma protein binding [2] = format: in vitro ADME; details: rat plasma proteins
plasma protein binding [3] = format: in vitro ADME; details: dog plasma proteins
plasma protein binding [4] = format: in vitro ADME; details: human plasma proteins
H4 = experiment: cell viability (CellTiterGlo), apilimod sensitivity; format: cell-based; details: Homo sapiens, Human neuroglioma
Source text: (§1) 35 cell lines were identified as sensitive to apilimod-induced cytotoxicity.

MEF-EV (TSC2−/− MEF) = experiment: 10-point dose response, cell viability (CellTiter-Glo); format: cell-based; details: Mus musculus; cell type MEF TSC2 −/− (MEF-EV); 72 h; average of two experiments
Source text: TSC2 null cells have constitutively active mTOR. Briefly, MEF cells derived from TSC2−/− knockout mouse embryos (Onda et al., J. Clin. Invest. 104(6):687-95, 1999) were infected with a retrovirus vector encoding the hygromycin antibiotic resistance gene (MEF-EV) or the same retrovirus vector also encoding TSC2 (MEF-TSC2). The MEF-EV and MEF-TSC2 line were then established by hygromycin selection.
See e.g., Zhang et al. J. Clin. Invest. 112, 1223-33, 2003. (2) ELT3-EV and ELT3-TSC2 lines were established from the ELT3 rat tumor cell line. The ELT3 line is an established rat tumor model for LAM/TSC. See e.g., Howe et al., Am. J. Path. 146, 1568-79, 1995. These cells harbor an inactivating mutation in TSC2, which leads to constitutive activation of the mTOR pathway. To develop an isogenic pair of cells ELT3 cells were infected with a retrovirus vector encoding the hygromycin antibiotic resistance gene (ELT3-EV) or the same retrovirus vector also encoding TSC2 (ELT3-TSC2). The ELT3-EV and ELT3-TSC2 line were then established by hygromycin selection. […] The cells were infected with amphotropic retrovirus LXSN16E6E7 that encodes the HPV16 E6 and E7 open reading frames and neomycin resistance cassette. […]
IC50 values were then calculated from the dose response curves using XLFIT (IDBS).

(TSC2−/−, p53−/−) MEF = experiment: as above; format: cell-based; details: Mus musculus; cell type MEF TSC2 −/− p53 −/−; 72 h; average of two experiments
Source text: (§2) (2) ELT3-EV and ELT3-TSC2 lines were established from the ELT3 rat tumor cell line. […] To develop an isogenic pair of cells ELT3 cells were infected with a retrovirus vector encoding the hygromycin antibiotic resistance gene (ELT3-EV) or the same retrovirus vector also encoding TSC2 (ELT3-TSC2). The ELT3-EV and ELT3-TSC2 line were then established by hygromycin selection. […] The cells were infected with amphotropic retrovirus LXSN16E6E7 that encodes the HPV16 E6 and E7 open reading frames and neomycin resistance cassette. Cells were expanded and neomycin-selected. Individual clones were isolated and frozen down. The coding sequence for the human Telomerase gene (hTERT) with hygromycin resistance cassette (pLXSN hTERT-hyg plasmid) was stably expressed into a TSC2^−/− confirmed E6E7 AML clone using Fugene6 transfection reagent (Roche Applied Science, Indianapolis, Ind.). TRI-AML102 was generated by stable incorporation of a control zeomycin selection plasmid (pcDNA3.1-zeo), while TRI-AML103 expresses the human TSC2 cDNA pcDNA3.1-zeo plasmid.

[5] = system: TRI-AML102 (TSC2 null AML); experiment: as above; format: cell-based; details: Homo sapiens; cell type AML (head: AML TSC2 +/− p53 −/−); 72 h; average of two experiments
Source text: as §2

ELT3-EV = experiment: as above; format: cell-based; details: Rattus norvegicus; cell type ELT3 (ELT3-EV); 72 h; average of two experiments; read-out: IC50 TSC2 −/−
Source text: as §2

Normal lung fibroblasts = experiment: cytotoxicity on normal cells; format: cell-based; details: concentrations as high as 10 micromolar
Source text: as §1

[6] = system: 122 human cancer cell lines; experiment: cancer cell line screen for sensitivity to apilimod; format: cell-based; details: sensitive if IC50 less than 500 nM
Source text: as §1
The most sensitive of those tested were non-Hodgkin's Lymphoma (NHL) cell lines. […] NHL represents a diverse group of hematopoietic malignancies that vary in severity, with subtypes ranging from slow growing to aggressive. Subtypes of NHL include diffuse large B cell lymphoma (DLBCL), Burkitt's lymphoma, mantle lymphoma, and follicular B cell lymphoma. DLBCL is divided into two subtypes, GCB and ABC, based on gene expression and cell of origin. The GCB are germinal center B cell type, arising from normal germinal center B cells, and the ABC are activated B cell type, arising from post-germinal center B cells in the process of differentiating into plasma cells.

[7] = system: diffuse large B cell lymphoma cells; experiment: Apotox-Glo Triplex assay; format: cell-based; details: 48 hours after addition
Protocol: Apoptosis was quantified and distinguished from necrosis using the Apotox-Glo Triplex assay (Promega, Inc.) according to the manufacturer's instructions. In this assay, viability, apoptosis, and necrosis are assessed simultaneously using three different markers (GF-AFC, Caspase-3/7, and bis-AAF-R110, respectively).

H4 neuroglioma cell line = experiment: Cyto-ID Autophagy detection; format: cell-based, Human; details: 72 hours of treatment
Source text: Autophagy was quantified using the Cyto-ID Autophagy detection kit (Enzo) according to manufacturer's directions.

SUDHL-4 cells = experiment: drug library screen with and without apilimod, cell viability; format: cell-based; details: Homo sapiens, SU-DHL-4
Source text: A manually curated library of 93 drugs including both FDA approved and unapproved drugs was used in the screen.
Ibrutinib is an FDA-approved drug targeting B-cell malignancies and indicated for monotherapy in treating mantle cell lymphoma and chronic lymphocytic leukemia. It is also known as PCI-32765 and marketed under the trade name Imbruvica™. […] BTK is a key mediator of at least three critical B-cell pro-survival mechanisms occurring in parallel-regulation of apoptosis, cell adhesion and cell migration and homing.

[8] = for Apilimod Ave. Plasma Conc.: Day 7; for sustained blood concentration of apilimod: measured at 24 h
[9] = system: peripheral blood mononuclear cells; details: Wada et al., Blood 109, 2007; cited from earlier work
U937 = details: WO 2006/128129; cited from earlier work
HELA = details: WO 2006/128129; cited from earlier work
Jurkat = details: WO 2006/128129; cited from earlier work
THP-1 = details: WO 2006/128129; cited from earlier work
Yulac614 melanoma cells = experiment: drug combination screen and validation, cell viability
Protocol: Yulac614 (resistant to vemurafenib, see Choi et al. 2014) cells were used to conduct drug combination studies to identify synergistic drug pairs. A library of 500 unapproved drugs was used to perform drug screening in the presence or absence of vemurafenib (at IC20=6 μM).
30 nL of library drug (at 1000× concentration) was spotted into appropriate wells of a 384 black walled plate (Corning #3712). Duplicate drug-spotted plates were prepared and to them were added Yulac614 cells which were pre-treated with either DMSO (0.01% final) or vemurafenib (6 μM final). The Yulac614 cells were grown in OptiMEM (Life Technologies) containing 5% FBS (Sigma Aldrich F2442-500 mL, Lot 12D370) Penicillin/Streptomycin (100×) (CellGro Ref 30-002). […]
Plates were incubated for 72 h at 37° C. under an atmosphere of 5% CO2 in a humidified incubator. Cell viability was determined with CellTiter-Glo® luminescence assay (Promega) as per the manufacturer's instructions. Viability was expressed as a percentage of control (DMSO) cells. […]
50 uL of the 10 point drug dilution series (at 2× concentration) was added to the cells. […] 72 hours after compound addition relative cell viability was determined by CellTiter-Glo® luminescence assay (Promega) as per the manufacturer's instructions, and values were expressed as a percentage relative to vehicle (DMSO) treated control cells (set to 100%).

In the case of Cc1cccc(/C=N/Nc2cc(N3CCOCC3)nc(OCC(O)c3ccccn3)n2)c1 (stereo not shown) [STA-5908], the vacuolation in cells (cancer cell line) is reported as “cause vacuolation in cells at comparable concentrations”, the Kd (PIKfyve) is reported as 0.09 nM and the “mean Cmax relative to apilimod” value [1] is reported as “somewhat less than half”. For the same compound, the “plasma concentration factor (for Apilimod Equivalent Concentrations)” value (shortened to “plasma concentration factor”) (WSU-DLCL2 cells) was 0.68.

With Cc1cccc(/C=N/Nc2cc(N3CCOCC3)nc(OCCc3cccc[n+]3[O-])n2)c1 [STA-5944] the vacuolation in cells (cancer cell line) was “cause vacuolation in cells at comparable concentrations”, the Kd (PIKfyve) was 0.061 nM and the “mean Cmax relative to apilimod” value [1] was “somewhat less than half”. The “plasma concentration factor” value (WSU-DLCL2 cells) was 0.52.

For Cc1cccc(/C=N/Nc2cc(N3CCOCC3)nc(OCC(O)c3cccc[n+]3[O-])n2)c1 (stereo not shown) [STA-6048], the vacuolation in cells (cancer cell line) was “cause vacuolation in cells at comparable concentrations”, the Kd (PIKfyve) was 0.088 nM and the “plasma concentration factor” value (WSU-DLCL2 cells) was 0.26.

With Cc1cccc(/C=N/Nc2cc(N3CCOCC3)nc(OCCc3ccccn3)n2)c1 [apilimod free base] the fraction unbound (plasma protein binding [2]) was < 0.01, the fraction unbound (plasma protein binding [3]) was < 0.01 and the fraction unbound (plasma protein binding [4]) was < 0.01.

Cc1cccc(/C=N/Nc2cc(N3CCOCC3)nc(OCCc3ccccn3)n2)c1 [apilimod] showed an IC50 (H4) of 250 to 300 nM, an IC50 (MEF-EV (TSC2−/− MEF)) of 19.7 nM and an IC50 ((TSC2−/−, p53−/−) MEF) of 28.8 nM. For the same compound, the IC50 [5] was 117 nM, the IC50 (ELT3-EV) was 13.7 nM and the apilimod-induced cytotoxicity (Normal lung fibroblasts) was “not cytotoxic; also recorded: insensitive”. For the same compound, the “NHL cell lines tested that were sensitive to apilimod” value ([6]; non-Hodgkin's Lymphoma cell lines) was “over 50%”, the “cell lines identified as sensitive to apilimod-induced cytotoxicity” value ([6]; of 122 human cancer cell lines) was 35 cell lines and the “apoptosis (Caspase-3/7 marker)” value [7] was “increased apoptosis”. For the same compound, the “autophagy (autophagic vacuoles)” value (H4 neuroglioma cell line) was “induced autophagy in a dose-dependent manner”, the “apilimod concentration at which vacuole formation in cells was observed” value (cancer cell line; as low as) was 20 nM and the vacuolization (cancer cell line; live cells, 500 nM, 24 h) was “induces vacuolization”. The IC20 (SUDHL-4 cells) was 10 nM, the “Apilimod Ave. Plasma Conc.” value ([8]; Group 3: S.C. pump ~15 mg/kg/d (DRW) + I.P. 30 mg/kg (MC)) was 0.682 µM and the “Apilimod Ave. Plasma Conc.” value ([8]; Group 7: S.C. pump ~15 mg/kg/d (DRW) + I.P. 30 mg/kg (DRD)) was 0.613 µM. For the same compound, the “Apilimod Ave. Plasma Conc.” value ([8]; Group 8: S.C. pump ~30 mg/kg/d (DRW) + I.P. 30 mg/kg (DRD)) was 1.76 µM, the “Apilimod Ave. Plasma Conc.” value ([8]; Group 9: S.C. pump ~15 mg/kg/d (DRW) only) was 0.755 µM and the “Apilimod Ave. Plasma Conc.” value ([8]; Group 10: S.C. pump ~30 mg/kg/d (DRW) only) was 1.87 µM. For the same compound, the “sustained blood concentration of apilimod” value ([8]; S.C. osmotic mini-pump 15 mg/kg/day (bis-mesylate salt)) was > 0.5 µM, the “sustained blood concentration of apilimod” value ([8]; S.C. osmotic mini-pump 30 mg/kg/day (bis-mesylate salt)) was > 1 µM and the cytotoxicity [9] was “not cytotoxic”. For the same compound, the cytotoxicity (U937) was “not cytotoxic”, the cytotoxicity (HELA) was “not cytotoxic” and the cytotoxicity (Jurkat) was “not cytotoxic”. For the same compound, the cytotoxicity (THP-1) was “not cytotoxic” and the IC20 (Yulac614 melanoma cells) was 500 nM.
